Assay results as given in patent US20080305169A1, “Pharmaceutical Compositions Comprising Nitrogen-Containing Fused Ring Coumpounds” (Japan Tobacco Inc., priority 2006, published 2008).

Legend:
[1] = Guideline for the management of hyperuricemia and gout (1st Edit.); cited from earlier work
[2] = Evaluation of stability on excipient compatibility, compound C (Experimental Example 11); assay type: physicochemical; conditions: 60° C., 75% RH, 2 weeks
From the text: Evaluation of Stability on Excipient Compatibility
Compound C was physically mixed in various additives shown in Table 48 in a mortar (see Table 48 for mixing ratio), and the obtained mixed powder was placed in a glass sample bottle in a layer thickness of about 5 mm.
The glass sample bottle was placed in a desiccator humidity-conditioned to 75% RH (relative humidity) without capping, and the desiccator containing the bottle was preserved for 2 weeks in a constant-temperature equipment set to 60° C.
After the completion of the preservation, a 60 v/v % aqueous acetonitrile solution was added to a concentration of compound C of 0.5 mg/mL, and the mixture was subjected to a dissolution treatment by ultrasonication and a filtration treatment. Each sample was measured by high performance liquid chromatography, and the stability was evaluated based on the changes from the start of preservation.

SMILES	dissolution concentration of uric acid in plasma [1] [mg/dL]	stability when compounded with an additive ([2]; compounded with an additive other than calcium silicate)	HPLC peak of decomposition product ([2]; when calcium silicate is added)
O=c1[nH]c(=O)c2[nH]c(=O)[nH]c2[nH]1 [uric acid]	7		
O=C(c1cc(Cl)c(O)c(Cl)c1)N1CCOc2ccccc21 [Reference Example 3, (3,5-dichloro-4-hydroxyphenyl)-(2,3-dihydrobenzo[1,4]oxazin-4-yl)-methanone]		good stability	novel peak considered to derive from the decomposition product of compound C
